According to ChEMBL document CHEMBL1149423, “Novel phenylamino acetamide derivatives as potent and selective kappa opioid receptor agonists” (Bioorg Med Chem Lett, 2006):

Experiments:
[1] = target: Opioid receptors; delta & kappa (Homo sapiens) (UniProt P41145+P41143); test: Selectivity for kappa opioid receptor over delta opioid receptor; format: protein assay
[2] = target: T1, Kappa-type opioid receptor (Homo sapiens, UniProt P41145); test: Binding affinity to kappa opioid receptor
[3] = target: T1, Kappa-type opioid receptor; test: Agonist activity at kappa opioid receptor in a [35S]GTP-gamma-S functional assay
[4] = target: Opioid receptors; mu & kappa (Homo sapiens) (UniProt P41145+P35372); test: Selectivity for kappa opioid receptor over mu opioid receptor; format: protein assay
Cytochrome P450 2D6 = Cytochrome P450 2D6 (Homo sapiens, UniProt P10635); test: Inhibitory activity against CYP2D6; format: ADME
Rattus norvegicus = organism: Rattus norvegicus; test: Antinociception in rat at 300 ug given intrapaw in late phase formalin-induced flinching assay; format: functional
Mus musculus = test: Inhibition of acetic acid-induced writhing in mice after sc administration; format: functional
Mu-type opioid receptor = Mu-type opioid receptor (Homo sapiens, UniProt P35372); test: Binding affinity to mu opioid receptor
Mu-type opioid receptor, sequence (P35372 whole entry): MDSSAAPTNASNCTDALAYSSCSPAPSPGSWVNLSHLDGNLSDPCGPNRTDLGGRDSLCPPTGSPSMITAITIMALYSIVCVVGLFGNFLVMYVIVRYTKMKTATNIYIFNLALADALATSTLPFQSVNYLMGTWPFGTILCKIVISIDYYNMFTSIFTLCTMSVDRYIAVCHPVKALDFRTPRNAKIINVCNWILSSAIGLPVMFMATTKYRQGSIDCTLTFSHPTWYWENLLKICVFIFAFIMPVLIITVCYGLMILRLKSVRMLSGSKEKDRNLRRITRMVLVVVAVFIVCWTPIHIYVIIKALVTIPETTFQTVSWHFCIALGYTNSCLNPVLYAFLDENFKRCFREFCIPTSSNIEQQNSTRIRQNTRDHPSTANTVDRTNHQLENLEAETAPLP

Cytochrome P450 2D6, sequence (P10635 whole entry): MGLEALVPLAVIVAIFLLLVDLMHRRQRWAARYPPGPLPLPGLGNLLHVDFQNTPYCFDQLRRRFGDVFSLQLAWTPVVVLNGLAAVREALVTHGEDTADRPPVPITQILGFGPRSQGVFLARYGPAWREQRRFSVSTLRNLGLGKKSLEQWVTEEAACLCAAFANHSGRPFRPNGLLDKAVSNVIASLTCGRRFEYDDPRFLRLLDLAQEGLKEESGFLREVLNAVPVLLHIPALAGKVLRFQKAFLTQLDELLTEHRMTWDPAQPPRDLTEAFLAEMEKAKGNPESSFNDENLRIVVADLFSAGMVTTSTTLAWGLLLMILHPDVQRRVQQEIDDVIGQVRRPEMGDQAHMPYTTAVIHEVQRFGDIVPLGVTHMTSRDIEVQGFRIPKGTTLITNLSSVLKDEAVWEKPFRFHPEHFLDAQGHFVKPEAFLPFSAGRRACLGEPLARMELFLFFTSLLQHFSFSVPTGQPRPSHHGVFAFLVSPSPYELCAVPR
Opioid receptors; mu & kappa (Homo sapiens), sequence (P35372 whole entry, looked up): as the sequence (P35372 whole entry) above
Opioid receptors; mu & kappa (Homo sapiens), sequence (P41145 whole entry, looked up): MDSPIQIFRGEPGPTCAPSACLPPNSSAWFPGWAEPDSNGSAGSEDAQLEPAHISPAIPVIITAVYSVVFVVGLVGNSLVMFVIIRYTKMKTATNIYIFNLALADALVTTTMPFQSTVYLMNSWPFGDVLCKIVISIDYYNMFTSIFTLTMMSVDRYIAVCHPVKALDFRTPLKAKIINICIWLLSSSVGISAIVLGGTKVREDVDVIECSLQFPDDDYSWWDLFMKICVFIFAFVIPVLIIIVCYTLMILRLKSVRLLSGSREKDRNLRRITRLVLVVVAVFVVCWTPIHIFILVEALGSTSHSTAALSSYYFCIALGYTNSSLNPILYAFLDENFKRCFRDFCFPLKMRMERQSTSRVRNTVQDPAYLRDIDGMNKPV
T1 sequence (P41145 whole entry): as the sequence (P41145 whole entry, looked up) above
Opioid receptors; delta & kappa (Homo sapiens), sequence (P41143 whole entry, looked up): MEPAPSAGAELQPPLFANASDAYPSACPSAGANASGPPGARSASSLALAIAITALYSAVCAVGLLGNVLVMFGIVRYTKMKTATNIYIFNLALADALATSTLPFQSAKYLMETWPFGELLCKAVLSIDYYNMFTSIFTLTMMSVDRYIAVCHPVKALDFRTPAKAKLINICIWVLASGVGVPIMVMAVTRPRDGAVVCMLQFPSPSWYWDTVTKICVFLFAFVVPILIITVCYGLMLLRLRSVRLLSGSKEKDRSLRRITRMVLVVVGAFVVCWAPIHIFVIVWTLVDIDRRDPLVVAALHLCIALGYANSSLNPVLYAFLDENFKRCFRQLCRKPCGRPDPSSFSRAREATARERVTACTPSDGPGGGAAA
Opioid receptors; delta & kappa (Homo sapiens), sequence (P41145 whole entry, looked up): as the sequence (P41145 whole entry, looked up) above

Structure (SMILES)	Ratio [1]	Ki [2]	EC50 [3]	Ratio [4]	IC50 (Cytochrome P450 2D6)	Activity (Rattus norvegicus)	ED50 (Mus musculus)	Ki (Mu-type opioid receptor)
CN(C(=O)CNc1cccc(CNS(C)(=O)=O)c1)[C@H](CN1CC[C@H](O)C1)c1ccccc1	38	3.9 nM	4.8 nM	38	8700 nM			
CN(C(=O)CNc1ccccc1)[C@H](CN1CC[C@H](O)C1)c1ccccc1	512			5880	4100 nM	96.2%	0.017 mg/kg	
CN(C(=O)CNc1ccc(Cl)c(Cl)c1)[C@H](CN1CC[C@H](O)C1)c1ccccc1	91	0.11 nM	0.27 nM	427	760 nM			
CN(C(=O)CNc1ccc(C(F)(F)F)cc1)[C@H](CN1CC[C@H](O)C1)c1ccccc1	256	0.39 nM	0.8 nM	385	190 nM			
CC(=O)N(CC(=O)N(C)[C@H](CN1CC[C@H](O)C1)c1ccccc1)c1ccccc1	342	3.8 nM	7.4 nM	> 1320	300 nM			> 5000 nM
CN(C(=O)CNc1cccc(C#N)c1)[C@H](CN1CC[C@H](O)C1)c1ccccc1	66	0.5 nM	0.58 nM	1140	3000 nM			
CN(CC(=O)N(C)[C@H](CN1CC[C@H](O)C1)c1ccccc1)c1ccccc1	169	0.32 nM	0.23 nM	1660	530 nM			
CN(C(=O)CNc1ccccc1CNS(C)(=O)=O)[C@H](CN1CC[C@H](O)C1)c1ccccc1	10	0.78 nM	0.52 nM	85	1500 nM			
CN(C(=O)CNc1ccc(CNS(C)(=O)=O)cc1)[C@H](CN1CC[C@H](O)C1)c1ccccc1	119	16 nM	24 nM	81	8000 nM			
CN(C(=O)CNc1ccc(C#N)cc1)[C@H](CN1CC[C@H](O)C1)c1ccccc1	409	0.66 nM	0.49 nM	833	2500 nM			
CCCS(=O)(=O)Nc1ccc(NCC(=O)N(C)[C@H](CN2CC[C@H](O)C2)c2ccccc2)cc1	87	1.5 nM	8.3 nM	1000	9000 nM			
CN(C(=O)CNc1ccc(NS(C)(=O)=O)cc1)[C@H](CN1CC[C@H](O)C1)c1ccccc1	47	5.7 nM	14 nM	> 877				> 5000 nM
CN(C(=O)CNc1ccc([N+](=O)[O-])cc1)[C@H](CN1CC[C@H](O)C1)c1ccccc1	119	0.21 nM	0.23 nM	905	3400 nM			
CN(CC(=O)N(C)[C@H](CN1CC[C@H](O)C1)c1ccccc1)c1ccc(C#N)cc1	180	1 nM	2.3 nM	250	670 nM			
CN(C(=O)CNc1ccccc1C#N)[C@H](CN1CC[C@H](O)C1)c1ccccc1	49	0.39 nM	0.42 nM	667	510 nM			
